Laboratory results from US6528523B2, “Farnesyl protein transferase inhibitors” (Schering Corporation, priority 2000, dated 2003).

Columns and labels:
[1] = target: T1, Farnesyl protein transferase (FPT) (Rattus norvegicus, UniProt Q02293+Q04631); assay: In vitro enzyme assay: inhibition of farnesyl protein transferase; assay type: biochemical; conditions: transfer of [3H]farnesyl from [3H]farnesyl pyrophosphate to Ras-CVLS
T1 construct: partially purified from rat brain by ammonium sulfate fractionation followed by Q-Sepharose; from tissue; host or cells: rat brain
T1 sequence (Q02293 whole entry, one chain of several): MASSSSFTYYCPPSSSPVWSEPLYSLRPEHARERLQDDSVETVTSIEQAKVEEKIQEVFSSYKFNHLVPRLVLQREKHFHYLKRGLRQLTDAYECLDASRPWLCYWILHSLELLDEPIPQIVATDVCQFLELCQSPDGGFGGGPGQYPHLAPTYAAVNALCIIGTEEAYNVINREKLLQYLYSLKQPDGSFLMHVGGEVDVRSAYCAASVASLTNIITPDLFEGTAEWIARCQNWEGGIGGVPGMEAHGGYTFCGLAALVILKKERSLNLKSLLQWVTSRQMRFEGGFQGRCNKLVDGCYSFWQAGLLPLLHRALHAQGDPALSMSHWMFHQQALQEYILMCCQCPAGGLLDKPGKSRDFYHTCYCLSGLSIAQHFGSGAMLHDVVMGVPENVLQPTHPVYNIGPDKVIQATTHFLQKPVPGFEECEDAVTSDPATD
Method: 1. In Vitro Enzyme Assay:
Human farnesyl protein transferase was also expressed in E. coli, using cDNA clones encoding both the a and b subunits. […] Human farnesyl protein transferase was partially-purified from the soluble protein fraction of E. coli as described above. […] Two forms of val^12-Ha-Ras protein were prepared as substrates for these enzymes, differing in their carboxy terminal sequence. One form terminated in cysteine-valine-leucine-serine (Ras-CVLS) the other in cystein-valine-leucine-leucine (Ras-CVLL). Ras-CVLS is a substrate for the farnesyl protein transferase while Ras-CVLL is a substrate for geranylgeranyl protein transferase I. The cDNAs encoding these proteins were constructed so that the proteins contain an amino-terminal extension of 6 histidine residues. Both proteins were expressed in Escherichia coli and purified using metal chelate affinity chromatography. The radio labelled isoprenyl pyrophosphate substrates, [^3H]farnesyl pyrophosphate and [^3H] geranylgeranyl pyrophosphate, were purchased from DuPont/New England Nuclear.
The reaction was allowed to proceed for 30 minutes at room temperature and then stopped with 0.5 ml of 4% sodium dodecyl sulfate (SDS) followed by 0.5 ml of cold 30% TCA. Samples were allowed to sit on ice for 45 minutes and precipitated Ras protein was then collected on GF/C filter paper mats using a Brandel cell harvester. […] Percent inhibition was calculated relative to the DMSO vehicle control.

Human tumor cells = assay: Soft agar assay (anchorage-independent growth); assay type: cell-based; conditions: colony outgrowth 10-16 days
Method: Anchorage-independent growth is a characteristic of tumorigenic cell lines. Human tumor cells are suspended in growth medium containing 0.3% agarose and an indicated concentration of a farnesyl transferase inhibitor. The solution is overlayed onto growth medium solidified with 0.6% agarose containing the same concentration of farnesyl transferase inhibitor as the top layer. After the top layer is solidified, plates are incubated for 10-16 days at 37° C. under 5% CO2 to allow colony outgrowth. After incubation, the colonies are stained by overlaying the agar with a solution of MTT (3-[4,5-dimethylthiazol-2-yl]-2,5-diphenyltetrazolium bromide, Thiazolyl blue) (1 mg/mL in PBS). Colonies are counted and the IC50's determined.

IC50 [1]	melting point	IC50 (Human tumor cells)	Compound
0.32 nM	137 to 139 °C	30 nM	O=C(Cc1cc[n+]([O-])cc1)N1CCC(C2c3ncc(Br)cc3C=Cc3cc(Cl)cc(Br)c32)CC1 (single isomer, unassigned) [Compound 11]
> 17 nM	142 to 143 °C		O=C(Cc1cc[n+]([O-])cc1)N1CCC(C2c3ncc(Br)cc3C=Cc3cc(Cl)cc(Br)c32)CC1 (single isomer, unassigned) [Compound 12]
3.3 nM	84 to 85 °C	> 500 nM	CS(=O)(=O)N1CCC(C2c3ncc(Br)cc3C=Cc3cc(Cl)cc(Br)c32)CC1 (single isomer, unassigned) [Compound 13]
> 18 nM	91 to 92 °C		CS(=O)(=O)N1CCC(C2c3ncc(Br)cc3C=Cc3cc(Cl)cc(Br)c32)CC1 (single isomer, unassigned) [Compound 14]
0.4 nM	146 to 147 °C	50 nM	NC(=O)N1CCC(CC(=O)N2CCC(C3c4ncc(Br)cc4C=Cc4cc(Cl)cc(Br)c43)CC2)CC1 (single isomer, unassigned) [Compound 15]
16 nM	142 to 143 °C		NC(=O)N1CCC(CC(=O)N2CCC(C3c4ncc(Br)cc4C=Cc4cc(Cl)cc(Br)c43)CC2)CC1 (single isomer, unassigned) [Compound 16]
